{"source": "patent US4276378A", "about": "“High sensitivity assays for angiotensin converting enzyme” (priority 1977, dated 1981)", "key": {"Guinea pig serum ACE [1]": {"biological_target": "T1, Guinea pig serum ACE (Cavia porcellus, UniProt H0UWL7)", "T1 sequence (H0UWL7 33-1234)": "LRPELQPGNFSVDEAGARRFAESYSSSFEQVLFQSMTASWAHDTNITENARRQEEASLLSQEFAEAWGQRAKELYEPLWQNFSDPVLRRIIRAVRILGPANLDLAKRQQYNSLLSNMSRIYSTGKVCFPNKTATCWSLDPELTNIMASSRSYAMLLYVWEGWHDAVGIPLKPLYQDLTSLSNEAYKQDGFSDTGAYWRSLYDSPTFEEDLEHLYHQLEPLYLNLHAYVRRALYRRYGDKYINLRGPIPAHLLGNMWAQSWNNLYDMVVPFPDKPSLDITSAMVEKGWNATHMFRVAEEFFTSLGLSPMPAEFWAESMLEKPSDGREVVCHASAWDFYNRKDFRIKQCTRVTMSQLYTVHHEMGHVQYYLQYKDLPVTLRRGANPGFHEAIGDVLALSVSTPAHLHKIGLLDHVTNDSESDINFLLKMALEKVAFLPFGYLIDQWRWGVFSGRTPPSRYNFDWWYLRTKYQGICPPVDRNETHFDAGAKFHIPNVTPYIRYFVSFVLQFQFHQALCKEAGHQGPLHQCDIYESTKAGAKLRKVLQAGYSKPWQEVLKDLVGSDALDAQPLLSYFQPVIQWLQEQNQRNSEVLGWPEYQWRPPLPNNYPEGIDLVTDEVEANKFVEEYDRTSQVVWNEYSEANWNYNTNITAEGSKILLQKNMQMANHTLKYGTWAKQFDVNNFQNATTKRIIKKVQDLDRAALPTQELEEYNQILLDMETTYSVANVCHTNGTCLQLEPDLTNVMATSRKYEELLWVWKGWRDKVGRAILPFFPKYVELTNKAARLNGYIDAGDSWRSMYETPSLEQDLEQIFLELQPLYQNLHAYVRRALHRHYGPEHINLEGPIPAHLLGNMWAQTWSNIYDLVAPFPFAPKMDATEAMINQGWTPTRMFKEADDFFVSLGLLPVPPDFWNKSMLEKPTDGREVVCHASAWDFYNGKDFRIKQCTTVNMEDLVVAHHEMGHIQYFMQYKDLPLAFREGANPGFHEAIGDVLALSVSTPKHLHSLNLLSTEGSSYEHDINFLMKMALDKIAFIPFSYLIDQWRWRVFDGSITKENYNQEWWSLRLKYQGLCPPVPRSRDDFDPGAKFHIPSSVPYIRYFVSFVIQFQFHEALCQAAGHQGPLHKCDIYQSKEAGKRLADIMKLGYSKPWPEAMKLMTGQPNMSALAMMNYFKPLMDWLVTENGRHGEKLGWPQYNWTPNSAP", "assay": "Kinetics of benzoyl-Phe-Ala-Pro hydrolysis (Example 6)", "type": "biochemical", "conditions": "for V (reaction velocity): 37° C., 10 minutes"}, "[2]": {"assay": "Solvent extraction of substrate and remnant product from acidified reaction mixture", "type": "physicochemical", "description": "While a variety of organic solvents may be suitable for the extraction step, it is preferred to employ toluene."}, "Guinea pig serum ACE [3]": {"biological_target": "T1, Guinea pig serum ACE", "assay": "Kinetics of sulfate-stimulated HipHisLeu hydrolysis (Example 4)", "type": "biochemical", "conditions": "for V (reaction velocity): pH 8.0, 0.1 M NaCl, 37° C., 10 minutes; for V (reaction velocity) / 1/V: 0.75 M Na2 SO4; for 1/V: 0.1 M NaCl", "method": "In each assay, 50 μl of Guinea pig serum diluted 1-20 (v/v) in the reaction buffer was mixed with 50 μl of buffer containing sufficient ^3 H-HipHisLeu to provide approximately 100,000 cpm total, together with sufficient unlabeled HipHisLeu to produce the desired substrate concentrations, as indicated in Table 2. […] The reaction mixture was then extracted with 1 ml ethyl acetate. 500 μl of the ethyl acetate fraction was sampled and counted in a scintillation counter."}, "ACE [4]": {"test_system": "ACE", "assay": "Apparent Km for HipHisLeu without sulfate", "type": "biochemical"}, "ACE [5]": {"biological_target": "ACE (Homo sapiens, UniProt P12821)", "sequence (P12821 30-1306, species assumed)": "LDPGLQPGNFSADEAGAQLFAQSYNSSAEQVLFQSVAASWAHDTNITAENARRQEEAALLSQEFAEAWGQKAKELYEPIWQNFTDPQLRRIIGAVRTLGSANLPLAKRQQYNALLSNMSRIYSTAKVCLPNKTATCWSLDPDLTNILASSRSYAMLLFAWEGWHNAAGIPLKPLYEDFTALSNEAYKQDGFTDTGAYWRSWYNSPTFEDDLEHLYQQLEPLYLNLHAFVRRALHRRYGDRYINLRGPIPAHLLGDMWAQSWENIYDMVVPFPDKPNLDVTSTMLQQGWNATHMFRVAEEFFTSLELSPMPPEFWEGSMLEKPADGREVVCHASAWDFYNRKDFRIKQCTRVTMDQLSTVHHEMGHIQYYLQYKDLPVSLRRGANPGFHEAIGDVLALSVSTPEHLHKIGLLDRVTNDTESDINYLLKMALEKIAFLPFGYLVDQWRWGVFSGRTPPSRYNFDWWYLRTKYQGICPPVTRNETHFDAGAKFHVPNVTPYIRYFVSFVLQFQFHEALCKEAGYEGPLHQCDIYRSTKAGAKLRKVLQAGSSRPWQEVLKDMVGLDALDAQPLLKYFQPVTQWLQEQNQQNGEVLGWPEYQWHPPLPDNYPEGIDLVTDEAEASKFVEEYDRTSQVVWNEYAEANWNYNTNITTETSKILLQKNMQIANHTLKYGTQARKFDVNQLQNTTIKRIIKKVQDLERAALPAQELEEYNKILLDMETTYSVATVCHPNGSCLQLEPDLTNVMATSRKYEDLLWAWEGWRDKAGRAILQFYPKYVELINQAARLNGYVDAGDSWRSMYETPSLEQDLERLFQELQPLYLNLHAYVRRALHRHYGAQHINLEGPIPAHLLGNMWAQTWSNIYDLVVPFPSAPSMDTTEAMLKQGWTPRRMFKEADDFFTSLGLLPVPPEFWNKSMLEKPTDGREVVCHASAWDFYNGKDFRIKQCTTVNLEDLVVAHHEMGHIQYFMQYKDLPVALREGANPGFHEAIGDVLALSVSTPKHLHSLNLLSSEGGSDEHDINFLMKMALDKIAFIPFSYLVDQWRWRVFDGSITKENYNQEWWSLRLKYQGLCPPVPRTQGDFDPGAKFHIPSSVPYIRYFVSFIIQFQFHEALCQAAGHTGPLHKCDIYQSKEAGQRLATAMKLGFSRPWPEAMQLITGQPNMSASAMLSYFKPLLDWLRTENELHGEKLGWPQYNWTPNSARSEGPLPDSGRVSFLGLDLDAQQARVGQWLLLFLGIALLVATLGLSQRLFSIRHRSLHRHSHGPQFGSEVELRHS", "conditions": "chloride absent; cited from earlier work"}, "ACE from rabbit lung": {"test_system": "ACE from rabbit lung", "conditions": "removal of sodium chloride from the reaction medium; cited from earlier work"}}, "note": "Peptide text beside a SMILES is read from it. * marks the point of attachment. Bz = O=C(c1ccccc1)*"}
{"smiles": "C[C@H](NC(=O)[C@H](Cc1ccccc1)NC(=O)c1ccccc1)C(=O)N1CCC[C@H]1C(=O)O", "note": "[benzoylPheAlaPro, benzoyl-Phe-Ala-Pro] (Bz-Phe-Ala-Pro-OH)", "values": [{"measurement": "Vmax", "setting": "Guinea pig serum ACE [1]; 0.05 M Hepes, pH 8.0, 0.15 M NaCl, Guinea pig serum diluted 1:1000", "result": 10, "unit": "pmol/min/mL"}, {"measurement": "Km", "setting": "Guinea pig serum ACE [1]; 0.05 M Hepes, pH 8.0, 0.15 M NaCl, Lineweaver and Burke plot, read-out: apparent Km", "result": 14, "unit": "µM"}, {"measurement": "1/V", "setting": "Guinea pig serum ACE [1]; BenzPheAlaPro concentration 1.0 μM", "result": 1.50, "unit": "mL·min/pmol"}, {"measurement": "V (reaction velocity)", "setting": "Guinea pig serum ACE [1]; BenzPheAlaPro concentration 1.0 μM, 0.05 M Hepes, pH 8.0, 0.15 M NaCl", "result": 0.67, "unit": "pmol/min/mL"}, {"measurement": "1/V", "setting": "Guinea pig serum ACE [1]; BenzPheAlaPro concentration 5.0 μM", "result": 0.48, "unit": "mL·min/pmol"}, {"measurement": "V (reaction velocity)", "setting": "Guinea pig serum ACE [1]; BenzPheAlaPro concentration 5.0 μM, 0.05 M Hepes, pH 8.0, 0.15 M NaCl", "result": 2.08, "unit": "pmol/min/mL"}, {"measurement": "1/V", "setting": "Guinea pig serum ACE [1]; BenzPheAlaPro concentration 10.0 μM", "result": 0.24, "unit": "mL·min/pmol"}, {"measurement": "V (reaction velocity)", "setting": "Guinea pig serum ACE [1]; BenzPheAlaPro concentration 10.0 μM, 0.05 M Hepes, pH 8.0, 0.15 M NaCl", "result": 4.17, "unit": "pmol/min/mL"}, {"measurement": "1/V", "setting": "Guinea pig serum ACE [1]; BenzPheAlaPro concentration 66.7 μM", "result": 0.11, "unit": "mL·min/pmol"}, {"measurement": "V (reaction velocity)", "setting": "Guinea pig serum ACE [1]; BenzPheAlaPro concentration 66.7 μM, 0.05 M Hepes, pH 8.0, 0.15 M NaCl", "result": 9.09, "unit": "pmol/min/mL"}, {"measurement": "extraction into ethyl acetate", "setting": "[2]; reaction terminated with dilute hydrochloric acid", "result": "almost quantitatively"}, {"measurement": "fraction entering the toluene phase", "setting": "[2]; toluene and acidified reaction mixture in approximately equal volumes at room temperature", "result": 6, "unit": "%"}]}
{"smiles": "CC(C)C[C@H](NC(=O)[C@H](Cc1c[nH]cn1)NC(=O)CNC(=O)c1ccccc1)C(=O)O", "note": "[HipHisLeu] (Bz-Gly-His-Leu-OH)", "values": [{"measurement": "Km", "setting": "Guinea pig serum ACE [3]; 0.05 M Hepes, pH 8.0, 0.1 M NaCl and 0.75 M Na2 SO4, Lineweaver and Burke plot, read-out: apparent Km", "result": 177, "unit": "µM"}, {"measurement": "V (reaction velocity)", "setting": "Guinea pig serum ACE [3]; HipHisLeu concentration 0.01 mM, 0.05 M Hepes", "result": 0.30, "unit": "nmol/min/mL"}, {"measurement": "1/V", "setting": "Guinea pig serum ACE [3]; HipHisLeu concentration 0.01 mM", "result": 3.33, "unit": "mL·min/nmol"}, {"measurement": "V (reaction velocity)", "setting": "Guinea pig serum ACE [3]; HipHisLeu concentration 0.02 mM, 0.05 M Hepes", "result": 0.52, "unit": "nmol/min/mL"}, {"measurement": "1/V", "setting": "Guinea pig serum ACE [3]; HipHisLeu concentration 0.02 mM", "result": 1.92, "unit": "mL·min/nmol"}, {"measurement": "V (reaction velocity)", "setting": "Guinea pig serum ACE [3]; HipHisLeu concentration 0.03 mM, 0.05 M Hepes", "result": 0.74, "unit": "nmol/min/mL"}, {"measurement": "1/V", "setting": "Guinea pig serum ACE [3]; HipHisLeu concentration 0.03 mM", "result": 1.35, "unit": "mL·min/nmol"}, {"measurement": "V (reaction velocity)", "setting": "Guinea pig serum ACE [3]; HipHisLeu concentration 0.04 mM, 0.05 M Hepes", "result": 1.28, "unit": "nmol/min/mL"}, {"measurement": "1/V", "setting": "Guinea pig serum ACE [3]; HipHisLeu concentration 0.04 mM", "result": 0.78, "unit": "mL·min/nmol"}, {"measurement": "V (reaction velocity)", "setting": "Guinea pig serum ACE [3]; HipHisLeu concentration 0.05 mM, 0.05 M Hepes", "result": 1.14, "unit": "nmol/min/mL"}, {"measurement": "1/V", "setting": "Guinea pig serum ACE [3]; HipHisLeu concentration 0.05 mM", "result": 0.88, "unit": "mL·min/nmol"}, {"measurement": "V (reaction velocity)", "setting": "Guinea pig serum ACE [3]; HipHisLeu concentration 0.06 mM, 0.05 M Hepes", "result": 1.28, "unit": "nmol/min/mL"}, {"measurement": "1/V", "setting": "Guinea pig serum ACE [3]; HipHisLeu concentration 0.06 mM", "result": 0.78, "unit": "mL·min/nmol"}, {"measurement": "V (reaction velocity)", "setting": "Guinea pig serum ACE [3]; HipHisLeu concentration 0.07 mM, 0.05 M Hepes", "result": 2.14, "unit": "nmol/min/mL"}, {"measurement": "1/V", "setting": "Guinea pig serum ACE [3]; HipHisLeu concentration 0.07 mM", "result": 0.47, "unit": "mL·min/nmol"}, {"measurement": "V (reaction velocity)", "setting": "Guinea pig serum ACE [3]; HipHisLeu concentration 0.08 mM, 0.05 M Hepes", "result": 1.76, "unit": "nmol/min/mL"}, {"measurement": "1/V", "setting": "Guinea pig serum ACE [3]; HipHisLeu concentration 0.08 mM", "result": 0.57, "unit": "mL·min/nmol"}, {"measurement": "Km", "setting": "ACE [4]", "result": "~2.6", "unit": "mM"}, {"measurement": "inhibition of hydrolysis", "setting": "ACE [5]", "result": 86, "unit": "%"}, {"measurement": "inhibition of hydrolysis", "setting": "ACE from rabbit lung", "result": 92, "unit": "%"}]}
